Measurements: PMC11879040, “Advancing systemic toxicity risk assessment: Evaluation of a NAM-based toolbox approach” (Toxicological Sciences, 2024)
Read-outs that look alike come from different tables or passages of the source.

Tests used:
[1] = target: Voltage-dependent L-type Ca2+ channel (dihydropyridine site), CACNA1C (r) (Rattus norvegicus, UniProt P22002); type: binding
[2] = test system: Potassium Voltage-Gated Channel Kv non-selective, KCNQ1 (r); assay: IPP KCNQ1 binding (antagonist radioligand); design: species or system rat; conditions: IPP screening at 100 uM; control α-dendrotoxin
[3] = test system: Gamma-aminobutyric acid receptor subunit alpha-1 BZD site, GABRA1A (r); type: binding, rat
[4] = test system: Sodium channel protein type 5 subunit alpha (site 2), SCN5A (r); type: binding, rat
[5] = test system: Thyroid hormone receptor alpha, THRA (h); assay: IPP THRA coactivator recruitment (agonist); type: biochemical, human; conditions: 100 uM; agonist; T3; * denotes assay interference (2-Amino-6-chloro-4-nitrophenol, HC Red 3)
Tubulin (r) = assay: IPP Tubulin binding; design: species or system rat; conditions: 100 uM; ligand/control Colchicine
HepG2 cells [6] = assay: Cell stress panel (CSP), 24 h, 8 concentrations, BIFROST global PoD; type: cell-based; conditions: HepG2; cell stress panel PoD
Experimental: Compounds were tested using the previously developed cell stress panel ([Hatherell et al. 2020]) and the expanded biomarker panel outlined in Middleton et al. HepG2 cells were treated with all compounds for 24 h across 8 concentrations prior to biomarker analysis. The same plate layout and number of replicates (3 biological and 2 technical) were used as previously for each assay within the panel.

HepG2 cells [7] = assay: High-throughput transcriptomics (HTTr, TempO-Seq), HepG2, 24 h; type: cell-based, human; conditions: HepG2; for pod_httr_bifrost PoD: HTTr BIFROST PoD; for podl_path_minbmd PoD: HTTr minimum pathway BMD(L)
Experimental: (§1) HepG2, HepaRG, and MCF7 cells were treated with each compound for 24 h across a dose range of 7 concentrations and lysed using TempO-Seq lysis buffer (BioSpyder Technologies, proprietary kit, see [Middleton et al. 2022] for method details). Sequencing was performed using TempO-Seq (BioClavis) version 2 of the human whole transcriptome panel and analyzed as described previously in Middleton et al.

HepaRG cells = assay: High-throughput transcriptomics (HTTr, TempO-Seq), HepaRG, 24 h; type: cell-based, human; conditions: HepaRG; for pod_httr_bifrost PoD: HTTr BIFROST PoD; for podl_path_minbmd PoD: HTTr minimum pathway BMD(L)
Experimental: as §1

MCF7 cells = assay: High-throughput transcriptomics (HTTr, TempO-Seq), MCF7, 24 h; type: cell-based, human; conditions: MCF-7; for pod_httr_bifrost PoD: HTTr BIFROST PoD; for podl_path_minbmd PoD: HTTr minimum pathway BMD(L)
Experimental: as §1

[8] = test system: Glutamate receptor ionotropic NMDA 1 non-selective, GRIN1 (r)
monkey = conditions: cited from earlier work
[9] = cited from earlier work
[10] = cited from earlier work; remark: listed apart in the source
[11] = per chemical see Peff Reference, cited from earlier work
[12] = skin penetration (PBK input)
[13] = Assignment of risk classifications to benchmark chemical-exposure scenarios; conditions: for risk: from table S1
[14] = target: T1, Adenosine receptor A2a, ADORA2A (h) (Homo sapiens, UniProt P29274); assay: IPP ADORA2A binding (agonist radioligand); conditions: IPP screening at 100 uM; control NECA
T1 construct: purchased Eurofins Cerep (SafetyScreen44-based IPP panel)
T1 sequence (P29274 whole entry): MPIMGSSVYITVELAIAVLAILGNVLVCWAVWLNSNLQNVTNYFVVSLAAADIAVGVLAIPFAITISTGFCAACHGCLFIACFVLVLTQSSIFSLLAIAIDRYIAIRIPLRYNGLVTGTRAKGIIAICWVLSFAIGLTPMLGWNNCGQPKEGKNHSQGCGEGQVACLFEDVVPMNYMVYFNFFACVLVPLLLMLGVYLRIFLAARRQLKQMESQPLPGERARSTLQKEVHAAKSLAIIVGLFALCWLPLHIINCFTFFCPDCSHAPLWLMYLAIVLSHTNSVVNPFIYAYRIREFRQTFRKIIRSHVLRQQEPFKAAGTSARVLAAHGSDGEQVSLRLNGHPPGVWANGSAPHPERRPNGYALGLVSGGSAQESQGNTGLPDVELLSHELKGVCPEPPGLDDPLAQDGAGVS

[15] = human
human = conditions: 7 month human volunteer study; ref [19-22]; cited from earlier work
[16] = ref [19-22]; cited from earlier work
[17] = intestinal absorption (PBK input); type: in vitro ADME; conditions: levels L2/L3, converted from [36]
[18] = test system: 63 targets with known safety liabilities; assay: In vitro pharmacological profiling (IPP) panel, screening at 10 or 100 µM and dose response, minimum IC50/AC50; type: biochemical; conditions: lowest AC50 across IPP panel (systemic targets); cell_type -; read-out: ipp_lowest_ac50_systemic PoD
rat = conditions: rat; repeat dose toxicity : oral; ref ToxRefDB/Paul-Friedman et al. (2020)/regulatory opinions; cited from earlier work
[19] = hepatic intrinsic clearance (Clint); conditions: PBK input, levels L2/L3; scaled from [10]
[20] = IPP screening at 100 uM, control diazepam
[21] = IPP screening at 100 uM, control CGS 19755
[22] = IV 200 mg slow IV (3min), 8 healthy male, validation, ref Martin et al. 1990
[23] = IV 400 mg slow IV (3min), 8 healthy male, validation, ref Martin et al. 1990
[24] = IV 800 mg infusion over five to seven minutes, 12 healthy, calibration, ref Pavliv et al. 2011
[25] = Oral 400 mg tablet, fasted, 18 healthy elderly, validation, ref Albert et al. 1984
[26] = Oral 500 mg ibuprofen lysine tablet (equivalent to 292.6 mg ibuprofen free acid), fasted, 8 healthy male, validation, ref Martin et al. 1990
[27] = Oral 800 mg tablet, fasted, 12 healthy, calibration, ref Pavliv et al. 2011
[28] = Oral 800 mg tablet, fasted, 13 healthy, validation, ref Duxin et al. 2017
[29] = Oral 800 mg tablet, fasted, 18 healthy elderly, validation, ref Albert et al. 1984
[30] = Oral 800 mg tablet, fed, 10 healthy, validation, ref Duxin et al. 2017
[31] = Oral 1200 mg tablet, fasted, 18 healthy elderly, validation, ref Albert et al. 1984
[32] = PBK level L2, optimised based on [21] (glutaraldehyde), [23] (HCRed3), [28] (ibuprofen)
[33] = PBK level L3, optimised based on [28]

Chain of Voltage-dependent L-type Ca2+ channel (dihydropyridine site), CACNA1C (r) (P22002 whole entry): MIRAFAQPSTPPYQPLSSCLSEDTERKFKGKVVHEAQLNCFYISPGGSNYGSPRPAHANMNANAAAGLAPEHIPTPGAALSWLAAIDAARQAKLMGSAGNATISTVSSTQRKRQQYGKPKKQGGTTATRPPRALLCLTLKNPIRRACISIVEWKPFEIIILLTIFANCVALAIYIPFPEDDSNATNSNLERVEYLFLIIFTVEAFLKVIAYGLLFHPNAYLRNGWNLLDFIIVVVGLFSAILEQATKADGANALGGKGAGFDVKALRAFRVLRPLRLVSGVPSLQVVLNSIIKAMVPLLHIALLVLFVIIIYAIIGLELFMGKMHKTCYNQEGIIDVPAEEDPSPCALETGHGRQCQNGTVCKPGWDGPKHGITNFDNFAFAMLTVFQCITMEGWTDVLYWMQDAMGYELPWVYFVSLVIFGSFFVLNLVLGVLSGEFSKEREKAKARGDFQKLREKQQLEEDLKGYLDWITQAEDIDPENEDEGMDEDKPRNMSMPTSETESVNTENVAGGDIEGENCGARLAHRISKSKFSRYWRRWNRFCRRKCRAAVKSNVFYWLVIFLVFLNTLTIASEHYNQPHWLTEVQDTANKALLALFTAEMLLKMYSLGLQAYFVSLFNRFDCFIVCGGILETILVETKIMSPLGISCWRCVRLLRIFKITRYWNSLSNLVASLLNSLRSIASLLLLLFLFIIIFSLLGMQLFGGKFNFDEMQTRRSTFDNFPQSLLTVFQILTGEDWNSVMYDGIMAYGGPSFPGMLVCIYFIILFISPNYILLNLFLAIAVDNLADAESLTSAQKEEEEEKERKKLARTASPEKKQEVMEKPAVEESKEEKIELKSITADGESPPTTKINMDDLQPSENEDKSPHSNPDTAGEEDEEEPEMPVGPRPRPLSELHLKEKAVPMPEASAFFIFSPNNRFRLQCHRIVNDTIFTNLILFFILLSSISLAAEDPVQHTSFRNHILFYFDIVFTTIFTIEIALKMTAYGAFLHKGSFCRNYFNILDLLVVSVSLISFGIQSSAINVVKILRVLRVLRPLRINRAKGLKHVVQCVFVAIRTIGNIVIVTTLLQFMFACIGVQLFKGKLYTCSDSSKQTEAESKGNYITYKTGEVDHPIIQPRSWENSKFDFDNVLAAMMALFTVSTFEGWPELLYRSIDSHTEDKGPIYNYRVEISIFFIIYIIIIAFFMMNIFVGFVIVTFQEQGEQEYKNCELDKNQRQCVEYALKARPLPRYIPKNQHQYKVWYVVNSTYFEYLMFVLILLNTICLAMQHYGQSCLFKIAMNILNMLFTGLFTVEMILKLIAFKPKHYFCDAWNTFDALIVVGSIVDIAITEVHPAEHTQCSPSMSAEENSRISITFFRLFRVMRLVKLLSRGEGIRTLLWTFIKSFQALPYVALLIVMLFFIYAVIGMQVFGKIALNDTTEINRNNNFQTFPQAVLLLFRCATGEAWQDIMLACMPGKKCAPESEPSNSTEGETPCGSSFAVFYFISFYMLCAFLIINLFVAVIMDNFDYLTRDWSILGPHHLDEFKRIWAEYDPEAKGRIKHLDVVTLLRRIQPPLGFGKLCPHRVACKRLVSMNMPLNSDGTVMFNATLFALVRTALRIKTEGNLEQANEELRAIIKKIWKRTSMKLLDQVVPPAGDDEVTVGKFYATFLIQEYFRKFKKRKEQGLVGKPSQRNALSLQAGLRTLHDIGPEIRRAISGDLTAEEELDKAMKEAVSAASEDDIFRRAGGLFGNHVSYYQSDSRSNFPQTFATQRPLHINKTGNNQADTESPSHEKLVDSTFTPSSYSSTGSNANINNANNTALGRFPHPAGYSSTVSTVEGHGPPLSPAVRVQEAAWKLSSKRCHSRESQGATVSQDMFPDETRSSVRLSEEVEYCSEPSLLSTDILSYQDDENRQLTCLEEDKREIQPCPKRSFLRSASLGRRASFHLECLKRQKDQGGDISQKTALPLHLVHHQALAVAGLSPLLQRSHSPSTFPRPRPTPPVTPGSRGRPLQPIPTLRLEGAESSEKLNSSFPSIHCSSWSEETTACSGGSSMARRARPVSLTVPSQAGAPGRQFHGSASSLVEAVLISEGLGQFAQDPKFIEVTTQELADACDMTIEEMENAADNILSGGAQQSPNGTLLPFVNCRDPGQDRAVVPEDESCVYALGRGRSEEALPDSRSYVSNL

For `CC(C)Cc1ccc(C(C)C(=O)O)cc1` (stereo not drawn) [Ibuprofen, 2-[4-(2-Methylpropyl)phenyl]propanoic acid], the Specific binding [1] was -14.3%, the Specific binding [2] was -8.5% and the Specific binding [3, 20] was 5.3%. For the same compound, the Specific binding [4] was 32.1%, the “IPP screening %, Coactivator recruitment” value [5] was 1.0% and the “IPP screening %, Specific binding” value (Tubulin (r)) was -14.0%. The “pod_cell_stress PoD” value (HepG2 cells [6]) was 8.518 µM, the “pod_httr_bifrost PoD” value (HepG2 cells [7]) was 7.6781 µM and the “podl_path_minbmd PoD” value (HepG2 cells [7]) was 30.2909 µM. For the same compound, the “pod_httr_bifrost PoD” value (HepaRG cells) was 0.1626 µM, the “podl_path_minbmd PoD” value (HepaRG cells) was 8.099 µM and the “pod_httr_bifrost PoD” value (MCF7 cells) was 42.8965 µM. The “podl_path_minbmd PoD” value (MCF7 cells) was 150.462 µM, the Specific binding [8, 21] was 7.2% and the “PoD (NOAEL)” value (monkey; monkey, 52 weeks, ref ToxRefDB/Paul-Friedman et al. (2020)/regulatory opinions) was 40 mg/kg bw/day. The “Reported AUC0-t” value [9, 22] was 59.96 µg·h/mL, the Reported cmax [9, 22] was 39 µg/mL and the “Reported AUC0-t” value [9, 23] was 117.4 µg·h/mL. For the same compound, the Reported cmax [9, 23] was 79.75 µg/mL, the “Reported AUC0-t” value [9, 24] was 187.4 µg·h/mL and the Reported cmax [9, 24] was 120.2 µg/mL. The “Reported AUC0-t” value [9, 25] was 128 µg·h/mL, the Reported cmax [9, 25] was 32.5 µg/mL and the “Reported AUC0-t” value [9, 26] was 85.59 µg·h/mL. For the same compound, the Reported cmax [9, 26] was 30.32 µg/mL, the “Reported AUC0-t” value [9, 27] was 187.4 µg·h/mL and the Reported cmax [9, 27] was 57.3 µg/mL. The “Reported AUC0-t” value [9, 28] was 252 µg·h/mL, the Reported cmax [9, 28] was 41.52 µg/mL and the “Reported AUC0-t” value [9, 29] was 236.6 µg·h/mL. For the same compound, the Reported cmax [9, 29] was 60.2 µg/mL, the “Reported AUC0-t” value [9, 30] was 223 µg·h/mL and the Reported cmax [9, 30] was 25.22 µg/mL. For the same compound, the “Reported AUC0-t” value [9, 31] was 279.2 µg·h/mL, the Reported cmax [9, 31] was 71.1 µg/mL and the Fup ([10]; PBK level L2, single value or median, ref [2],[4],[6],[7],[8],[10],[11],[15],[18],[27],[34]) was 1.3%. The Fup ([10]; PBK level L3, single value or median, ref [2],[4],[6],[7],[8],[10],[11],[15],[18],[27],[34]) was 1.3%, the Peff ([11]; PBK level L2, ref [3],[4],[11]) was 5.034 cm/s x E-04 and the Peff ([11]; PBK level L3, ref [4],[11]) was 5.034 cm/s x E-04. For the same compound, the “Diffusivity Dermis” value [12, 32] was 1.00E-06 cm^2/s, the “Diffusivity Stratum Corneum” value [12, 32] was 1.00E-09 cm^2/s and the “Diffusivity Viable Epidermis” value [12, 32] was 1.00E-06 cm^2/s. The “Partition Coefficient Stratum Corneum/Water” value ([12]; PBK level L2, optimised based on [21] (glutaraldehyde), [23] (HCRed3), [28] (ibuprofen), no reference printed (DEET)) was 1500.00, the “Partition Coefficient Viable Epidermis/Water” value ([12]; PBK level L2, optimised based on [21] (glutaraldehyde), [28] (ibuprofen)) was 700.00 and the “Diffusivity Vehicle” value ([12]; PBK level L2, optimised based on [23] (HCRed3), [28] (ibuprofen)) was 1.00E-05 cm^2/s. The “Partition Coefficient Vehicle/Water” value ([12]; PBK level L2, optimised based on [28]) was 10.00, the “Diffusivity Dermis” value [12, 33] was 1.00E-06 cm^2/s and the “Diffusivity Stratum Corneum” value [12, 33] was 1.00E-09 cm^2/s. For the same compound, the “Diffusivity Vehicle” value [12, 33] was 1.00E-05 cm^2/s, the “Diffusivity Viable Epidermis” value [12, 33] was 1.00E-06 cm^2/s and the “Partition Coefficient Stratum Corneum/Water” value [12, 33] was 1500.00. For the same compound, the “Partition Coefficient Vehicle/Water” value [12, 33] was 10.00, the “Partition Coefficient Viable Epidermis/Water” value [12, 33] was 700.00 and the risk ([13]; Dermal, 10%, Gel, Exp3) was 1. It also gave a risk ([13]; Oral, High therapeutic, 1200mg/day, Tablet, Exp1) of 1 and a risk ([13]; Oral, Low therapeutic, 200mg/day, Tablet, Exp2) of 1.
In the case of `O=S(=O)(O)NC1CCCCC1` [Cyclamate, Sodium cyclohexylsulfamate], the Specific binding [2] is reported as 0.6%, the Specific binding [3] is reported as -8.6% and the Specific binding [4] is reported as 19.1%. The Specific binding [14] was 1.0%, the “IPP screening %, Coactivator recruitment” value [5] was 2.0% and the “IPP screening %, Specific binding” value (Tubulin (r)) was 21.0%. For the same compound, the “pod_cell_stress PoD” value (HepG2 cells [6]) was 480.52 µM, the “responding probes (with CDS > 0.5)” value (HepG2 cells [7]) was 22 and the “responding probes (with CDS > 0.5)” value (HepaRG cells) was 7. The “responding probes (with CDS > 0.5)” value (MCF7 cells) was 18, the Specific binding [8] was -4.4% and the risk [15] was 0. For the same compound, the “male monkeys showing testicular effects” value (monkey; lifetime monkey study, 500 mg/kg bw/day, at 23 years, ref [19-22]) was 2/5, the “dietary level at which persistent diarrhoea was noted” value (human) was ≥ 141 mg/kg bw/day and the ADI [16] was 7 mg/kg bw/day.
With `CC(=O)Nc1ccc(O)cc1` [Paracetamol, N-(4-Hydroxyphenyl)acetamide] the Specific binding [2] was -3.6%, the Specific binding [3, 20] was 8.7% and the Specific binding [4] was 34.9%. The Specific binding [14] was 6.7%, the “IPP screening %, Coactivator recruitment” value [5] was 1.0% and the “IPP screening %, Specific binding” value (Tubulin (r)) was -2%. The “pod_cell_stress PoD” value (HepG2 cells [6]) was 40.132 µM, the “pod_httr_bifrost PoD” value (HepG2 cells [7]) was 9.465 µM and the “podl_path_minbmd PoD” value (HepG2 cells [7]) was 262.202 µM. The “pod_httr_bifrost PoD” value (HepaRG cells) was 76.0572 µM, the “podl_path_minbmd PoD” value (HepaRG cells) was 322.442 µM and the “pod_httr_bifrost PoD” value (MCF7 cells) was 4.261 µM. For the same compound, the “podl_path_minbmd PoD” value (MCF7 cells) was 184.341 µM, the Peff [17] was 3.56 cm/s x E-04 and the AC50 [18] was 39.1 µM. The Specific binding [8, 21] was -4.2%, the “PoD (LOEL)” value (rat) was 30 mg/kg bw/day and the Fup ([10]; PBK input, level L2, ref [10]) was 100%. The “Intrinsic Liver Clearance” value [19] was 10.79 L/h, the “Risk Classification” value ([13]; IV 4000 mg/day) was “High risk” and the risk ([13]; IV, High therapeutic, 4g/day, Exp3) was 1. The “Risk Classification” value ([13]; Oral 500 mg/day) was “High risk”, the “Risk Classification” value ([13]; Oral 4000 mg/day) was “High risk” and the risk ([13]; Oral, High therapeutic, 4000mg/day, Tablet, Exp1) was 1. The risk ([13]; Oral, Low therapeutic, 500mg/day, Tablet, Exp2) was 1.
